Here are results for three sequences from patent publication EP0833842B1, “NOVEL PEPTIDES FOR USE IN TREATMENT OF T-CELL MEDIATED CARTILAGE DESTRUCTION IN AUTOIMMUNE DISEASES” (Akzo Nobel N.V., priority 1995, dated 1999).

Where no end group is shown, it is not given here.

The target in this assay is DR4 (DRB1*0401) (Homo sapiens, UniProt P01903+P01911, A100K/A169T/F76Y/I96L/K127E/L162R/M171V/N62H/P40V/Q125Y/R42H/S133A/S149N/S66Y/V115G/V209L/W38E). Description: Peptide HLA-DR binding assay (semi-quantitative competition with biotinylated marker peptide). Particulars: read-out: DRB1*0401 ^eIC50. As for the experimental part:
Two EBV-transformed B-cell lines, BSM (typed as DR4 [DRB1*0401] and BM92 (typed as DR4 [DRB1*0404) were provided by Dr. M. Oudshoom from the Academic Hospital Leiden, the Netherlands. The cells were cultured in Dulbecco's modified eagles minimal essential medium DMEM/HAM's F12 (Gibco Laboratories, Grand Island, NY) supplemented with 10% FCS (Hyclone Laboratories), 1% non-essential amino acids (ICI), L-glutamine, 2-ME and antibiotics. Cells were routinely passaged every 2-3 days in a 1:2 ratio. Cells were harvested and thereafter washed three times in phosphate buffer saline (PBS) (4°C) containing 1 mM PMSF. Cell pellets were stored at -70°C until use. HLA-DR expressing cells were thawed and lysed on ice for 30 minutes in PBS, 1% NP-40, 1 mM AEBSF (Calbiochem). The lysate was cleared of nuclei and debris by centrifugation at 15.000 rpm (Sorvall, SS34 rotor) for 30 minutes.
HLA-DR molecules were affinity purified from cell lysates using monoclonal antibody L243 (ATCC), directed against a nonpolymorphic determinant on the DR-complex (Lampson et al., J. Immunol. 125:293, 1980). Protein G sepharose purified L243 was coupled to NHS-Sepharose 4 FF (Pharmacia) according to the manufactures instructions. The cleared cell-lysate was passed through a 0.45 µm filter and added to L243-NHS-sepharose beads. […] Collected fractions were analysed on SDS-PAGE under non-reducing conditions followed by silver staining. […]
The peptide binding studies were performed using a semi-quantitative binding assay as described previously (Joosten et al., Int. Immunol. 6:751, 1994).
After approximately 48 hours incubation at room temperature, bound and unbound marker peptides were separated by SDS-PAGE under non-reducing conditions. […] Biotinylated peptides were detected by enhanced chemoluminescence using a Westem Blot ECL kit (Amersham, U.K.) according to the manufactures instructions. […]

On to AGWLADGSLRYPI [HAG3], for which the IC50 is 1 to 10 µM. As for AGWLADRSVRYPI [HAG2], the IC50 lay within 1 to 10 µM. The figure for AGWLSDGSVQYPI [HCLP1] is 10 to 100 µM.
